Key:
porcine pancreas lipase = molecular target: porcine pancreas lipase; design: method as in PMID 28454959; details: commercial polyphenol standards; cited from earlier work
[1] = Scavenging of superoxide anion generated by xanthine oxidase; format: biochemical
Description: The superoxide anion generated by xanthine oxidase can be scavenged by polyphenols. In this assay, the flavonol catechin was used as a positive control, showing a SC50 of 8.7 ± 0.1 μg/mL. All G. decorticans fruit PEEs were able to scavenge the superoxide anion, with SC50 values between 14.5–44.2 μg/mL, with the exception of the sample from El Transito II that only scavenged 45.1% the radical at 50 μg/mL.
(§1) The scavenging capacity of the G. decorticans PEEs was evaluated against the free radicals DPPH and superoxide anion. The discoloration of the DPPH radical was carried out according to literature. The scavenging of the superoxide anion was evaluated following a previously described method. Results are presented as the amount of extract that is able to scavenge 50% of the radicals (SC50, μg PEE/mL).

DPPH discoloration assay = assay: DPPH discoloration assay
Description: as §1

[2] = Ferric-reducing antioxidant power (FRAP) assay; details: Trolox equivalents
Description: (§2) The ferric-reducing antioxidant power (FRAP) assay was carried out according to a previously described method. The cupric-reducing antioxidant capacity (CUPRAC) assay was performed according to literature. Results are expressed as mmoles Trolox equivalents/kg PEE. Catechin was used as a positive control in both assays.

[3] = Cupric-reducing antioxidant capacity (CUPRAC) assay; details: Trolox equivalents
Description: as §2

sPLA2 = molecular target: T1, sPLA2 (Homo sapiens, UniProt P39877); assay: Secretory phospholipase A2 inhibition, colorimetric kit; format: biochemical; details: read-out: sPLA2 % Inhibition
T1 construct: purchased Cayman Chemical 10004883
T1 sequence (P39877 21-138): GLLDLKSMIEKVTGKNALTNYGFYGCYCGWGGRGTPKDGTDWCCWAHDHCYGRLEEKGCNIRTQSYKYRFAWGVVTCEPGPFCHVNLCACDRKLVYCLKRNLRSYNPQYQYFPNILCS
Description: The sPLA2 inhibitory activity was determined using a colorimetric kit (10004883, Cayman Chemical). Enzyme and samples (200–100 μg PEE/mL) were mixed, and then the substrate (diheptanoyl Thio-PC) was added, and incubated during 15 min at 25 °C. Then, DTNB (Ellman’s reagent) was added and absorbance was read at 415 nm. Results are expressed as a percentage of inhibition or IC50 (μg PEE/mL). Ursolic acid was used as the reference compound [37].

COX-2 = molecular target: T2, COX-2 (Homo sapiens, UniProt P35354); assay: Cyclooxygenase inhibition, commercial kit (COX-2); format: biochemical; details: read-out: COX-2% Inhibition
T2 construct: purchased Cayman Chemical 560131
T2 sequence (P35354 18-604): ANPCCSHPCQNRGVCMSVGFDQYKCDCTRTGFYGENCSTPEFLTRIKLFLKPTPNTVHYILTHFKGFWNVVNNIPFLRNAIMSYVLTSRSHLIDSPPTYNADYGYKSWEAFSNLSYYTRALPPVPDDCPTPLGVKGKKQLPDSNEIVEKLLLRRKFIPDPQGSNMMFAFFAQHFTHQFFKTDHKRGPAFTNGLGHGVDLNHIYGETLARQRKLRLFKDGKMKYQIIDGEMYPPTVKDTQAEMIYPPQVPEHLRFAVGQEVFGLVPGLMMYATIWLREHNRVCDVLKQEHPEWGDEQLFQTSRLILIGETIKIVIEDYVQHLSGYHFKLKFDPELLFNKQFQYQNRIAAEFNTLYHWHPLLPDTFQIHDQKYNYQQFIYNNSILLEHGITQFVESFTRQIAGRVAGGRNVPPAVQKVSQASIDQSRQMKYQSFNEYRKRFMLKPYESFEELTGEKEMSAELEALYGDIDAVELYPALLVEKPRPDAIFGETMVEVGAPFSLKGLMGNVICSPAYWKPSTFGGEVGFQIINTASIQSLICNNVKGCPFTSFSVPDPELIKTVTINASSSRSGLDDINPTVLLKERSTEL
Description: (§3) Enzyme and samples (50 μg PEE/mL) were pre-incubated during 10 min and then arachidonic acid was added. The reaction was conducted for exactly 2 min at 37 °C and halted in boiling water for 5 min. […] Results were expressed as a percentage of inhibition of PGF2α production.

COX-1 = molecular target: T3, COX-1 (Ovis aries, UniProt P05979); assay: Cyclooxygenase inhibition, commercial kit (COX-1); format: biochemical; details: at 50 μg/mL
T3 construct: purchased Cayman Chemical 560131
T3 sequence (P05979 25-600): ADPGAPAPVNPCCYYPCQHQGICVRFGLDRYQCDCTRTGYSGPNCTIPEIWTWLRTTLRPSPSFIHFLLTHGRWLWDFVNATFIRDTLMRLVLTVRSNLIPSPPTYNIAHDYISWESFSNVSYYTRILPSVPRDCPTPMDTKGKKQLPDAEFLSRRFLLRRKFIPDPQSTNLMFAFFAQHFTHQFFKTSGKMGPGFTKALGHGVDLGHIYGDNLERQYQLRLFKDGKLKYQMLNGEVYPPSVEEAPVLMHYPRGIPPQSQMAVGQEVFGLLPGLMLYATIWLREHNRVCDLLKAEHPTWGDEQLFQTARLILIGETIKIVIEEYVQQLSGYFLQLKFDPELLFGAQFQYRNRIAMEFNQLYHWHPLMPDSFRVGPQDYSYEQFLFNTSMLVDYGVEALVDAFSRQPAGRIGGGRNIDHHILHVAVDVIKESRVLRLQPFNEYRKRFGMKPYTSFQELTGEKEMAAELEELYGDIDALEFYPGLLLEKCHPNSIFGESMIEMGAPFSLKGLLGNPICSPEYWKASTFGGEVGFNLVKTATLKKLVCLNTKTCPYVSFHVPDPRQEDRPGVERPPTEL
Description: as §3, with “COX inhibitory activity was determined using a commercial kit (560131, Cayman Chemical, Ann Arbor, MI, USA). Enzyme” for “Enzyme”, “production. The commercial anti-inflammatory compound nimesulide was included as the reference compound [4].” for “production.”

Q: Which IC50 (porcine pancreas lipase) does the source give for `Oc1cc(O)c2c(c1)O[C@H](c1cc(O)c(O)c(O)c1)[C@H](O)C2` [epigallocatechin] here?
A: 237 µM

Q: Which “O2 Scavenging SC50” value [1] does the source give for `O.Oc1cc(O)c2c(c1)O[C@H](c1ccc(O)c(O)c1)[C@@H](O)C2` [Catechin] here?
A: 8.7 ± 0.1 µg/mL

Q: What about the “DPPH SC50” value (DPPH discoloration assay; Table 1, fruit PEEs) of the same compound?
A: 11.4 ± 1.6 µg/mL

Q: What about the “DPPH SC50” value (DPPH discoloration assay; Table 4, Diego de Almagro PEE and Sephadex LH-20 fractions) of the same compound?
A: 11.4 ± 1.6 µg/mL

Q: What about the FRAP [2] of the same compound?
A: 5.4 ± 0.1 mmol TE/g PEE

Q: And the CUPRAC [3]?
A: 13.4 ± 0.3 mmol TE/g PEE

Q: With `C[C@H]1[C@H](C)CC[C@]2(C(=O)O)CC[C@]3(C)C(=CC[C@@H]4[C@@]5(C)CC[C@H](O)C(C)(C)[C@@H]5CC[C@]43C)[C@H]12` [Ursolic acid] as the compound, how does the inhibition at 50 µg/mL (sPLA2) read?
A: 26.7 ± 0.7%

Q: For `O=C(O)c1cc(O)c(O)c(O)c1` [gallic acid], which IC50 (porcine pancreas lipase) is on record?
A: 387 µM

Q: Which IC50 (porcine pancreas lipase) does the source give for `O=C(O[C@@H]1Cc2c(O)cc(O)cc2O[C@@H]1c1cc(O)c(O)c(O)c1)c1cc(O)c(O)c(O)c1` [epigallocatechin gallate] here?
A: 391 µM

Q: With `CS(=O)(=O)Nc1ccc([N+](=O)[O-])cc1Oc1ccccc1` [Nimesulide] as the compound, how does the inhibition at 50 µg/mL (COX-2) read?
A: 100%

Q: What about the inhibition at 50 µg/mL (COX-1) of the same compound?
A: 100%
